Results: patent US20040109905A1, “Method and composition of anthocyanin-rich berry extracts that prevents or inhibits angiogenesis and helicobacter pylori and acts as a powerful antioxidant that provides various health benefits” (priority 2002, published 2004)

System: H2O2-induced expression of VEGF
Assay: H2O2-induced VEGF expression in HaCaT keratinocytes (ELISA)
Assay type: cell-based, human
Settings: for VEGF: HaCaT cells, FA 200 nM, catechin 100 nM, rutin 1 μM, α-tocopherol 10 μM for 12 hours, then H2O2 150 μM for 12 hours, Mean±SD of three experiments; for effect on H2O2 (oxidant)-inducible VEGF expression, in words: human keratinocytes
Procedure: The cells used for the test were immortalized HaCaT human keratinocytes grown in Dulbecco's modified Eagle's medium (provided by Life Technologies of Gaithersburg, Md.) and supplemented with 10% fetal bovine serum, 100 U/mL penicillin and 100 μg/mL streptomycin.
Solutions incorporating berry extracts or GSPE were prepared fresh in dimethyl sulfoxide at concentrations such that the final concentration of the solvent in cell suspension never exceeded 0.1% prior to cell treatment, the DMSO solutions were passed through a […] filter for sterilization. Respective controls were treated with equal volumes of dimethyl sulfoxide. The test cells were pretreated with the berry solutions.
Test cells were seeded onto multiple well culture-plates. After 24 hours of growth at 80% confluency, the cells were synchronized by culturing them in a serum-deprived medium for 12 hours. Following the synchronization, the cells were treated with H2O2 or TNFα. The berry treatment protocols are described in the legends for Tables 2 through 4 below. A serum-free medium was selected to avoid any possible interaction between the serum components and H2O2. The VEGF level in the medium was determined using a commercially available ELISA kit, marketed by R and D systems of Minneapolis, Minn.
HaCaT cells were seeded at density 0.45×10^6/well/3 ml. After 24 hr, growth media was chanced to serum free RPMI and berry samples (50 μg/ml) or GSPE (25 μg/ml) were added. After 12 hours, cells were challenged with H2O2 (150 μM). After 12 hours of activation with H2O2, media was collected for ELISA. *p<0.05, higher in response to H2O2 treatment; *lower compared to H2O2 treated cells. Mean±SD of three experiments.
HaCaT cells were seeded at density 0.45×10^6/well/3 ml. After 24 hr, growth media was chanced to serum free RPMI and either pure flavonoids ([…], FA 200 nM; catechin, Cat 100 nM, ruti, rut 1 μM) at concentrations observed in berry samples or a α-tocopherol (10 μM as reference antioxidant) were added. After 12 hours, cells were challenged with H2O2 (150 μM). After 12 hours of activation with H2O2, media was collected for ELISA. *p<0.05, higher in response to H2O2 treatment; *lower compared to H2O2 treated cells. Mean±SD of three experiments.

Compound: COc1cc(/C=C/C(=O)O)ccc1O [Ferrulic Acid]
- VEGF: 319.19 ± 21.05 pg/mL
- effect on H2O2 (oxidant)-inducible VEGF expression, in words: suppress oxidant-inducible VEGF expression to some degree

Compound: C[C@@H]1O[C@@H](OC[C@H]2O[C@@H](Oc3c(-c4ccc(O)c(O)c4)oc4cc(O)cc(O)c4c3=O)[C@H](O)[C@@H](O)[C@@H]2O)[C@H](O)[C@H](O)[C@H]1O [Rutin]
- VEGF: 209.06 ± 59.28 pg/mL

Compound: Cc1c(C)c2c(c(C)c1O)CC[C@@](C)(CCC[C@H](C)CCC[C@H](C)CCCC(C)C)O2 [α-tocopherol]
- VEGF: 397.10 ± 64.91 pg/mL
- effect on H2O2 (oxidant)-inducible VEGF expression, in words: did not influence inducible VEGF expression

Compound: Catechin
- VEGF: 285.89 ± 51.13 pg/mL
- effect on H2O2 (oxidant)-inducible VEGF expression, in words: suppress oxidant-inducible VEGF expression to some degree
